Experimental data published in patent publication US4084006A, “Method of using dialkylphenols an antiviral agents” (priority 1977, dated 1978).

Columns and labels:
[1] = system: Herpes simplex virus (HF strain); test: Inhibition of cytopathic activity (CPE) of herpes virus in HEL tissue culture; assay type: cell-based; settings: for CPE with 100 TCID50 doses of Herpes virus: HEL cells
Experimental: (§1) The anti-viral activity of 2,4-dimethylphenol was studied in the following manner. Tissue cultures derived from human embryonic lung (HEL) were grown and maintained as monolayers in 32 ounce prescription bottles using growth medium consisting of 85% synthetic mixture No. 199 plus 15% unfiltered fetal bovine serum (FBS) adjusted to pH 7.4. Tube cultures of HEL cells were prepared in similar fashion and used in assays for anti-viral activity. During chemotherapy tests, the maintenance medium consisted of synthetic mixture No. 199 with 7.5% FBS. The virus spectrum in tissue culture consisted of two DNA viruses, a San Carlos virus isolated by Davis [see Science 133, 2059, 1961] and later identified as an adenovirus, and the HF strain of herpes simplex virus. In addition, a RNA virus represented by measles was included in the examples.
(§2) In performing the initial assays, the tissue cultures were treated prophylactically and the virus was treated in vitro with decreasing 2,4-dimethylphenol concentrations ranging from […] (2 × 10^-6) to 2 attograms (ag) (2 × 10^-18) per ml. The procedure consisted of pretreating tube cultures of HEL cells for two to three days with growth medium containing varying concentrations of 2,4-dimethylphenol. After the prophylactic treatment, the test fluids were removed and replaced with fresh maintenance medium. At this time, 200 TCID50 doses of virus were mixed in vitro with the same decreasing concentrations of the distillate used to pretreat the cells, then the mixture was inoculated into replicate culture of HEL cells so that the final incolum consisted of 100 TCID50 doses of virus in tubes with 2,4-dimethylphenol at the same level used to prophylactically treat the cells.
(§3) The same number of infected control tubes were handled in the same way except that 2,4-dimethylphenol was omitted from all media. Culture tubes were rotated at 37° C. and examined daily for a period of 7 days for cytopathic activity (CPE). […] By the same token, the CPE of herpes virus was inhibited by both the 10^-12 and 10^-15 level, possibly indicating two active components. […]

Measles = test: Inhibition of cytopathic activity (CPE) of measles virus in HEL tissue culture; assay type: cell-based; settings: for CPE with 100 TCID50 doses of Measles virus: HEL cells
Experimental: as §1, §2, §3

San Carlos virus = test: Dimethylphenols against San Carlos virus in tissue culture (human embryonic lung), CPE; assay type: cell-based, San Carlos virus (adenovirus); settings: for CPE with TCID50 doses of San Carlos virus: human embryonic lung, 100 TCID50
[2] = system: Mycoplasma pulmonis (ATCC 19612); test: Serum antibodies for Mycoplasma in rats; assay type: in vivo, Mycoplasma pulmonis (host: rat); settings: one part per million; two of 19 infected rats in all groups, the other a control
Description: Attempts were made to test the effect of infecting rats with Mycoplasma pulmonis (ATCC 19612) so that they could transmit the disease to their cage mates and, also allowed them to breed. This was also done to test if the mothers would pass the infection on to their litters. These rats were purchased from a laboratory in Indianapolis, Indiana and they were divided into 6 groups with male animals in each group. In the 5 experimental groups, a total of 15 female rats out of 30, and in the control group 4 female rats out of 8 were infected intranasally with Mycoplasma pulmonis (ATCC 19612). There were two male rats per experimental group and 3 for the controls totaling 13 male rats, and none of these were infected with M. pulmonis.
The experimental groups (8 rats each) and control group were treated as follows:
All rats were fed ad libitum rat chow, and their cages were cleaned 5-6 times weekly. For the 5 experimental groups, the 2,4 DMP was dissolved in distilled water used for their drinking fluid while the control only received distilled water. There were times when the rats spilled excessive amounts of their drinking water and this caused a certain amount of the phenol to be evaporated from these cages, particularly those groups receiving the higher concentrations of the phenol. […]

`Cc1ccc(O)c(C)c1` [2,4-dimethylphenol] was tested, and the “CPE with 100 TCID50 doses of Herpes virus” value ([1]; 10^-6 grams 2X) was 3+ (75% of cells infected with selected virus), the “CPE with 100 TCID50 doses of Herpes virus” value ([1]; 10^-7 grams 2X) was 3+ (75% of cells infected with selected virus) and the “CPE with 100 TCID50 doses of Herpes virus” value ([1]; 10^-8 grams 2X) was 2+ (50% of cells infected with selected virus). The “CPE with 100 TCID50 doses of Herpes virus” value ([1]; 10^-9 grams 2X) was 2+ (50% of cells infected with selected virus), the “CPE with 100 TCID50 doses of Herpes virus” value ([1]; 10^-10 grams 2X) was 2+ (50% of cells infected with selected virus) and the “CPE with 100 TCID50 doses of Herpes virus” value ([1]; 10^-11 grams 2X) was 2+ (50% of cells infected with selected virus). The “CPE with 100 TCID50 doses of Herpes virus” value ([1]; 10^-12 grams 2X) was 1+ (25% of cells infected with selected virus), the “CPE with 100 TCID50 doses of Herpes virus” value ([1]; 10^-13 grams 2X) was 2+ (50% of cells infected with selected virus) and the “CPE with 100 TCID50 doses of Herpes virus” value ([1]; 10^-14 grams 2X) was 3+ (75% of cells infected with selected virus). The “CPE with 100 TCID50 doses of Herpes virus” value ([1]; 10^-15 grams 2X) was 1+ (25% of cells infected with selected virus), the “CPE with 100 TCID50 doses of Herpes virus” value ([1]; 10^-16 grams 2X) was 4+ (100% of cells infected with selected virus) and the “CPE with 100 TCID50 doses of Herpes virus” value ([1]; 10^-17 grams 2X) was 4+ (100% of cells infected with selected virus). The “CPE with 100 TCID50 doses of Herpes virus” value ([1]; 10^-18 grams 2X) was 2+ (50% of cells infected with selected virus), the “CPE of herpes virus” value ([1]; both the 10^-12 and 10^-15 level) was “inhibited” and the “CPE with 100 TCID50 doses of Measles virus” value (“CPE … of Measles virus” for short) (Measles; 10^-6 grams 2X) was 3+ (75% of cells infected with selected virus). For the same molecule, the “CPE … of Measles virus” value (Measles; 10^-7 grams 2X) was 3+ (75% of cells infected with selected virus), the “CPE … of Measles virus” value (Measles; 10^-8 grams 2X) was 3+ (75% of cells infected with selected virus) and the “CPE … of Measles virus” value (Measles; 10^-9 grams 2X) was 2+ (50% of cells infected with selected virus). For the same molecule, the “CPE … of Measles virus” value (Measles; 10^-10 grams 2X) was 2+ (50% of cells infected with selected virus), the “CPE … of Measles virus” value (Measles; 10^-11 grams 2X) was 2+ (50% of cells infected with selected virus) and the “CPE … of Measles virus” value (Measles; 10^-12 grams 2X) was 2+ (50% of cells infected with selected virus). For the same molecule, the “CPE … of Measles virus” value (Measles; 10^-13 grams 2X) was 2+ (50% of cells infected with selected virus), the “CPE … of Measles virus” value (Measles; 10^-14 grams 2X) was 1+ (25% of cells infected with selected virus) and the “CPE … of Measles virus” value (Measles; 10^-15 grams 2X) was 1+ (25% of cells infected with selected virus). The “CPE … of Measles virus” value (Measles; 10^-16 grams 2X) was “± (less than 10% infected)”, the “CPE … of Measles virus” value (Measles; 10^-17 grams 2X) was 1+ (25% of cells infected with selected virus) and the “CPE … of Measles virus” value (Measles; 10^-18 grams 2X) was 0 (no cells infected). The “Measles CPE” value (Measles; concentrations less than the 10^-14 level) was “appeared to be inhibited”, the “CPE with TCID50 doses of San Carlos virus” value (“CPE with TCID50 doses” for short) (San Carlos virus; 10^-6 grams 2X) was 3+ (75% of cells infected with selected virus) and the “CPE with TCID50 doses” value (San Carlos virus; 10^-7 grams 2X) was 2+ (50% of cells infected with selected virus). For the same molecule, the “CPE with TCID50 doses” value (San Carlos virus; 10^-8 grams 2X) was “± (less than 10% infected)”, the “CPE with TCID50 doses” value (San Carlos virus; 10^-9 grams 2X) was “± (less than 10% infected)” and the “CPE with TCID50 doses” value (San Carlos virus; 10^-10 grams 2X) was “± (less than 10% infected)”. For the same molecule, the “CPE with TCID50 doses” value (San Carlos virus; 10^-11 grams 2X) was 1+ (25% of cells infected with selected virus), the “CPE with TCID50 doses” value (San Carlos virus; 10^-12 grams 2X) was 1+ (25% of cells infected with selected virus) and the “CPE with TCID50 doses” value (San Carlos virus; 10^-13 grams 2X) was 1+ (25% of cells infected with selected virus). The “CPE with TCID50 doses” value (San Carlos virus; 10^-14 grams 2X) was 2+ (50% of cells infected with selected virus), the “CPE with TCID50 doses” value (San Carlos virus; 10^-15 grams 2X) was 2+ (50% of cells infected with selected virus) and the “anti-viral activity against San Carlos virus” value (San Carlos virus; at various concentrations) was “exhibit anti-viral activity”. For the same molecule, the “M. pulmonis infected rats with detectable Mycoplasma antibody titers” value [2] was “One”.
